As a reminder, the inhibition is the relative decrease from the control value, in per cent. Low readings indicate little suppression, high ones strong suppression.

For the assay, the target named is PCSK9 (Homo sapiens, UniProt Q8NBP7). The assay can be described thus: PCSK9-LDLR in vitro Binding Assay (ELISA). As to conditions: for inhibition at 5 µM: Concentration 5 μM. The procedure:
The PCSK9-LDLR in vitro Binding Assay is a quantitative solid phase binding assay between PCSK9 and recombinant LDLR. Plates were pre-coated with a recombinant LDLR-AB domain, which binds PCSK9. Test compound at different concentration was added to the PCSK9 and added to LDLR immobilized on the wells. The amount of bound PCSK9 is measured by binding it with biotinylated anti-His-tag monoclonal antibody, followed by binding with horseradish peroxidase conjugated streptavidin substrate. The color was quantified by ELISA reader at […] which reflects the relative amount of PCSK9 that binds to LDLR in presence and absence of the inhibitor. EC50 values were calculated by nonlinear regression analysis using graph pad prism software. Each concentration point represents values in duplicates.
A general note: In an ELISA, binding on a coated surface is turned into a signal by an enzyme label.

Sequence of PCSK9 (Q8NBP7 153-692): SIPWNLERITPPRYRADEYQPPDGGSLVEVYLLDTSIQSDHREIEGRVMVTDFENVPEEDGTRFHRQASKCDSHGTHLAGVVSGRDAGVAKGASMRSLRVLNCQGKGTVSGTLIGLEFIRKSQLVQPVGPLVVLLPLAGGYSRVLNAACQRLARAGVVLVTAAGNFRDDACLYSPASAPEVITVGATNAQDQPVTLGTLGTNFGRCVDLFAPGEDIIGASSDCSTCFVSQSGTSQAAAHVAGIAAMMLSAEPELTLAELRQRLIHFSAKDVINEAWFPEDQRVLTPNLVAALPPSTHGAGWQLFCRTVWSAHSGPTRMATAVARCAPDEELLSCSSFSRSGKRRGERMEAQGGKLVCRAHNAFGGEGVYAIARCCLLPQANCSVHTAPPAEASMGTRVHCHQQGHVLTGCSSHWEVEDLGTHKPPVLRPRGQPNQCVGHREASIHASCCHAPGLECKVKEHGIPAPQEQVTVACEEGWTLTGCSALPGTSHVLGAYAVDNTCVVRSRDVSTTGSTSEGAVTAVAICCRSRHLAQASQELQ
Sequence of PCSK9 (Q8NBP7 31-152 partner limits assumed): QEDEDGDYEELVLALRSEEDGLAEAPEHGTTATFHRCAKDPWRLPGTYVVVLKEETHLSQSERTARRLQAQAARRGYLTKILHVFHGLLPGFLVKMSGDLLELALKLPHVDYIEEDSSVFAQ

Turning to `Cc1oc(-c2ccccc2)nc1CC1COC(C)(C(=O)NOCc2ccccc2)OC1` (stereo not shown) [Example 1, N-(benzyloxy)-2-methyl-5-((5-methyl-2-phenyloxazol-4-yl)methyl)-1,3-dioxane-2-carboxamide], the inhibition at 5 µM came out at 25%. 10 µM produced 30% inhibition (Concentration 10 μM). In addition, 100 µM produced 32% inhibition (Concentration 100 μM).

With `Cc1oc(-c2ccccc2)nc1CC1COC(C)(C(=O)NCC2CCOCC2)OC1` (stereo not shown) [Example 9, 2-methyl-5-c-((5-methyl-2-phenyloxazol-4-yl)methyl)-N—((tetrahydro-2H-pyran-4-yl)methyl)-1,3-dioxane-2-carboxamide], the “% Inhibition PCSK9” value came to 15% (Concentration 10 μM) and 12% (Concentration 100 μM).

In the case of `Cc1oc(-c2ccccc2)nc1CC1COC(C)(C(=O)N2CCOCC2)OC1` (stereo not shown) [Example 11, (2-methyl-5-((5-methyl-2-phenyloxazol-4-yl)methyl)-1,3-dioxan-2-yl)(morpholino)methanone], the inhibition at 5 µM amounted to 20%. The inhibition at 10 µM (Concentration 10 μM) stood at 30%. Under “Concentration 100 μM”, this compound had an inhibition at 100 µM of 44%.

On to `Cc1oc(-c2ccccc2)nc1CC1COC(C)(C(=O)N2CCCCC2)OC1` (stereo not shown) [Example 15, (2-methyl-5-c-((5-methyl-2-phenyloxazol-4-yl)methyl)-1,3-dioxan-2-yl)(piperidin-1-yl)methanone], for which the “% Inhibition PCSK9” value came to 11% (Concentration 10 μM) and 4% (Concentration 100 μM).

As to `Cc1oc(-c2ccccc2)nc1CC1COC(C)(C(=O)N2CCSCC2)OC1` (stereo not shown) [Example 16, (2-methyl-5-c-((5-methyl-2-phenyloxazol-4-yl)methyl)-1,3-dioxan-2-yl)(thiomorpholino)methanone], the “% Inhibition PCSK9” value (Concentration 100 μM) was found to be 12%.

Consider `Cc1oc(-c2ccccc2)nc1CC1COC(C)(C(=O)N2CCS(=O)(=O)CC2)OC1` (stereo not shown) [Example 17, (1,1-dioxidothiomorpholino)(2-methyl-5-c-((5-methyl-2-phenyloxazol-4-yl)methyl)-1,3-dioxan-2-yl)methanone], for which, under “Concentration 100 μM”, the “% Inhibition PCSK9” value came to 15%.

`Cc1oc(-c2ccccc2)nc1CC1COC(C)(C(=O)NCC(=O)N2CCOCC2)OC1` (stereo not shown) [Example 18, 2-methyl-5-((5-methyl-2-phenyloxazol-4-yl)methyl)-N-(2-morpholino-2-oxoethyl)-1,3-dioxane-2-carboxamide]: the inhibition at 1 µM (Concentration 1 μM) was found to be 40%. The compound further gave an inhibition at 100 µM (Concentration 100 μM) of 39%.

Regarding `Cc1oc(-c2ccccc2)nc1CC1COC(C)(C(=O)NCC(=O)N2CCCCC2)OC1` (stereo not shown) [Example 22, 2-methyl-5-c-((5-methyl-2-phenyloxazol-4-yl)methyl)-N-(2-oxo-2-(piperidin-1-yl)ethyl)-1,3-dioxane-2-carboxamide], the “% Inhibition PCSK9” value stood at 25% (Concentration 10 μM) and 17% (Concentration 100 μM).

With `Cc1oc(-c2ccccc2)nc1CC1COC(C)(C(=O)NCC(=O)N2CCSCC2)OC1` (stereo not shown) [Example 23, 2-methyl-5-c-((5-methyl-2-phenyloxazol-4-yl)methyl)-N-(2-oxo-2-thiomorpholinoethyl)-1,3-dioxane-2-carboxamide], the “% Inhibition PCSK9” value (Concentration 10 μM) was determined as 21% and the “% Inhibition PCSK9” value (Concentration 100 μM) is recorded as 22%.

Turning to `Cc1oc(-c2ccccc2)nc1CC1COC(C)(C(=O)NCC(=O)NCC2CCOCC2)OC1` (stereo not shown) [Example 25, 2-methyl-5-c-((5-methyl-2-phenyloxazol-4-yl)methyl)-N-(2-oxo-2-(((tetrahydro-2H-pyran-4-yl)methyl)amino)methyl)-1,3-dioxane-2-carboxamide], the “% Inhibition PCSK9” value runs as follows: (Concentration 10 μM) 15%; (Concentration 100 μM) 16%.

`Cc1oc(-c2ccccc2)nc1CC1COC(C)(C(=O)NCCC(=O)N2CCS(=O)(=O)CC2)OC1` (stereo not shown) [Example 29, N-(3-(1,1-dioxidothiomorpholino)-3-oxopropyl)-2-methyl-5-c-((5-methyl-2-phenyloxazol-4-yl)methyl)-1,3-dioxane-2-carboxamide]: the “% Inhibition PCSK9” value is, setting by setting: (Concentration 10 μM) 8%; (Concentration 100 μM) 12%.

In the case of `Cc1oc(-c2ccccc2)nc1CCC1COC(C)(C(=O)NO)OC1` (stereo not shown) [Example 35, N-hydroxy-2-methyl-5-c-(2-(5-methyl-2-phenyloxazol-4-yl)ethyl)-1,3-dioxane-2-carboxamide], the “% Inhibition PCSK9” value reads like this: (Concentration 1 μM, 1 µM) 18%; (Concentration 10 μM) 19%; (Concentration 100 μM, 100 µM) 19%.

As to `Cc1oc(-c2ccccc2)nc1CCC1COC(C)(C(=O)NO)OC1` (stereo not shown) [Example 36, N-hydroxy-2-methyl-5t-(2-(5-methyl-2-phenyloxazol-4-yl)ethyl)-1,3-dioxane-2-carboxamide], the “% Inhibition PCSK9” value by setting is: (Concentration 1 μM, 1 µM) 10%; (Concentration 100 μM, 100 µM) 24%.

`Cc1oc(-c2ccccc2)nc1CCC1COC(C)(C(=O)NCC2CCOCC2)OC1` (stereo not shown) [Example 38, 2-methyl-5-c-(2-(5-methyl-2-phenyloxazol-4-yl)ethyl)-N—((tetrahydro-2H-pyran-4-yl)methyl)-1,3-dioxane-2-carboxamide]: the “% Inhibition PCSK9” value reads like this: (Concentration 10 μM) 14%; (Concentration 100 μM) 21%.

Regarding `Cc1oc(-c2ccccc2)nc1CCC1COC(C)(C(=O)N2CCOCC2)OC1` (stereo not shown) [Example 41, (2-methyl-5-c-(2-(5-methyl-2-phenyloxazol-4-yl)ethyl)-1,3-dioxan-2-yl)(morpholino)methanone], the “% Inhibition PCSK9” value was found to be 12% (Concentration 10 μM) and 19% (Concentration 100 μM).

For the compound `Cc1oc(-c2ccccc2)nc1CCC1COC(C)(C(=O)N2CCN(C)CC2)OC1` (stereo not shown) [Example 43, (2-methyl-5-c-(2-(5-methyl-2-phenyloxazol-4-yl)ethyl)-1,3-dioxan-2-yl)(4-methylpiperazin-1-yl)methanone], the “% Inhibition PCSK9” value reads like this: (Concentration 10 μM) 8%; (Concentration 100 μM) 10%.

`Cc1oc(-c2ccccc2)nc1CCC1COC(C)(C(=O)N2CCSCC2)OC1` (stereo not shown) [Example 45, (2-methyl-5-c-(2-(5-methyl-2-phenyloxazol-4-yl)ethyl)-1,3-dioxan-2-yl)(thiomorpholino)methanone]: the “% Inhibition PCSK9” value is 11% (Concentration 10 μM) and 18% (Concentration 100 μM).

Consider `Cc1oc(-c2ccccc2)nc1CCC1COC(C)(C(=O)N2CCS(=O)(=O)CC2)OC1` (stereo not shown) [Example 46, (1,1-dioxidothiomorpholino)(2-methyl-5-c-(2-(5-methyl-2-phenyloxazol-4-yl)ethyl)-1,3-dioxan-2-yl)methanone], for which the “% Inhibition PCSK9” value is recorded as 12% (Concentration 10 μM) and 18% (Concentration 100 μM).

With `Cc1oc(-c2ccccc2)nc1CCC1COC(C)(C(=O)NCC(=O)N2CCOCC2)OC1` (stereo not shown) [Example 47, 2-methyl-5-(2-(5-methyl-2-phenyloxazol-4-yl)ethyl)-N-(2-morpholino-2-oxoethyl)-1,3-dioxane-2-carboxamide], at 1 µM the inhibition (Concentration 1 μM) was 38%. For the setting “Concentration 10 μM”, the inhibition at 10 µM came out at 38%. This compound displayed an inhibition at 100 µM (Concentration 100 μM) of 42%.

For the compound `Cc1oc(-c2ccccc2)nc1CCC1COC(C)(C(=O)NCC(=O)N2CCOCC2)OC1` (stereo not shown) [Example 49, 2-methyl-5-t-(2-(5-methyl-2-phenyloxazol-4-yl)ethyl)-N-(2-morpholino-2-oxoethyl)-1,3-dioxane-2-carboxamide], the “% Inhibition PCSK9” value (Concentration 100 μM) was determined as 17%.

As to `Cc1oc(-c2ccccc2)nc1CCC1COC(C)(C(=O)NCC(=O)N2CCN(C)CC2)OC1` (stereo not shown) [Example 51, 2-methyl-5-c-(2-(5-methyl-2-phenyloxazol-4-yl)ethyl)-N-(2-(4-methylpiperazin-1-yl)-2-oxoethyl)-1,3-dioxane-2-carboxamide], the “% Inhibition PCSK9” value is, setting by setting: (Concentration 10 μM) 10%; (Concentration 100 μM) 35%.

The values are drawn from US20120252796A1, “COMPOUNDS FOR THE TREATMENT OF DYSLIPIDEMIA AND RELATED DISEASES” (priority 2009, published 2012).
